“Also recorded” adds a separate entry of the source.
What was measured:
[1] = target: T1, ODC (WT, D44A, D243A, E384A) (Homo sapiens, UniProt P11926, D44A); test: pull-down assay with ectopically expressed ODC mutants in HCT116 cells; format: binding; settings: D44A mutant compared with D243A, E384A and WT
T1 construct: expressed in transfected cells; host or cells: HCT116 colon cancer cells
T1 sequence (P11926 1-461 D44A): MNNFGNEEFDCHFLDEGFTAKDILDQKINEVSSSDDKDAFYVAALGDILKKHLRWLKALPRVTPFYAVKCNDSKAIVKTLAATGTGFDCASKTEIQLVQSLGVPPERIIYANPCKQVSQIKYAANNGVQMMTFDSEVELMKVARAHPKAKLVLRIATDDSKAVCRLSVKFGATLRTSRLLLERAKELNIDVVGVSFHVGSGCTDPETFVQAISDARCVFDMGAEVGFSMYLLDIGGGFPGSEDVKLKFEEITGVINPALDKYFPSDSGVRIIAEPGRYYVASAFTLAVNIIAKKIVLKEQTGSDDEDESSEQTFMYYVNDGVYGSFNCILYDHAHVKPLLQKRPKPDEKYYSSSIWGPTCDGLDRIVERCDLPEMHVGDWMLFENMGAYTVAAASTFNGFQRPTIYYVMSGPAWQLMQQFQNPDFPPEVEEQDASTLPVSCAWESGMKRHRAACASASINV
Method: A recombinant human ODC protein (200 ng) or total cell lysates (500 μg) to were incubated with herbacetin Sepharose 4B (or Sepharose 4B only as a control) beads (50 μl, 50% slurry) in reaction buffer (50 mM Tris pH 7.5, 5 mM EDTA, 150 mM NaCl, 1 mM DTT, 0.01% NP40, 2 μg/mL bovine serum albumin). After incubation with gentle rocking overnight at 4° C., the beads were washed 5 times with buffer (50 mM Tris pH 7.5, 5 mM EDTA, 150 mM NaCl, 1 mM DTT, 0.01% NP40) and binding was determined by Western blotting.

[2] = target: T2, ODC (Mus musculus, UniProt P00860); test: ODC activity in TPA-treated JB6 mouse skin epidermal cells; format: cell-based
T2 construct: endogenous in cells; host or cells: JB6 mouse skin epidermal cells, TPA-treated
T2 sequence (P00860 1-461): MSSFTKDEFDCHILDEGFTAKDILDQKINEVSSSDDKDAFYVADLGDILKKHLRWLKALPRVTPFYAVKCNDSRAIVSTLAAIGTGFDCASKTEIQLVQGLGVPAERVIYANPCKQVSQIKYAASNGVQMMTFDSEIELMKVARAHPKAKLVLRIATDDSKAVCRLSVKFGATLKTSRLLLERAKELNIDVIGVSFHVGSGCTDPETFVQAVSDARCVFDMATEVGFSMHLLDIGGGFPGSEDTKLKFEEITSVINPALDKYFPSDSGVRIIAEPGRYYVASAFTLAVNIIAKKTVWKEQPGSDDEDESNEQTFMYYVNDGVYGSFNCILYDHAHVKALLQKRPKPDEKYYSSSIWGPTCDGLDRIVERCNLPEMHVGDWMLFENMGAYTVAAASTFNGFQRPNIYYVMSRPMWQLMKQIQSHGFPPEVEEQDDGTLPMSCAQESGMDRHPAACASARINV
Method: ODC activity was measured as the release of CO2 from L-[1-C^14] ornithine as previously described ([…]).

[3] = system: C57BL/6J-ApcMin+ mice; test: APCMin+ mouse colon cancer prevention pilot study, IP, 15 weeks; format: in vivo
Method: The anti-cancer effect of herbacetin in vivo has also been shown. Herbacetin prevents colon cancer development in […]57BL/6J-ApcMin+ were divided into […] and injected IP with vehicle or 1 of 2 amounts of herbacetin in vehicle. The doses included 0, 0.4, or 2 mg/kg B.W. herbacetin injected IP (n=15 total, 5 per group; Table 1). APC-min mice were 5 weeks old at the beginning of the study and received herbacetin for 15 weeks 5 days/week.

[4] = system: HCT116 colon cancer cells; test: anchorage independent HCT116 colon cancer cell growth; format: cell-based
Method: (§1) FIGS. 3A-3H. Anticancer effect of herbacetin. (a) The effect of herbacetin on ODC activity in colon cancer cell lines was measured as the release of CO2 from L-[1-C^14] ornithine. […] (b) The effect of herbacetin and DFMO on the growth of colon cancer cells and (c) TPA-induced JB6 cell growth was compared. Cells were incubated for 72 h and growth was estimated using the MTS assay. (d) The effect of herbacetin on anchorage independent HCT116 colon cancer cell growth and (e) TPA-induced JB6 cell transformation was assessed. Cells were incubated for 2 weeks and then colonies were counted using a microscope and the Image-Pro PLUS (v.6) computer software program. The effect of herbacetin on AP-1 reporter activity in (f) HCT116 colon cancer cells and (g) TPA-induced AP-1 reporter activity in JB6 mouse epidermal cells was analyzed using the substrates included in the reporter assay system. Data are represented as means±S.D. of triplicate values from three independent experiments and the asterisk (*) indicates a significant (p<0.05) effect of herbacetin or DFMO compared to untreated or TPA-treated controls. (h) The effect of herbacetin on the phosphorylation of ERK1 and ERK2 in HCT116 colon cancer cells was determined by Western blotting. Similar results were observed from two independent experiments.

[5] = system: ERK1/2, p90^RSK; test: Western blotting of ERK1/2 and p90RSK phosphorylation in HCT116 cells; format: cell-based
Method: as §1, with “Data are represented as means±S.D. of triplicate values from three independent experiments and the asterisk (*) indicates a significant (p<0.05) effect of herbacetin or DFMO compared to untreated or TPA-treated controls.” left out, “Similar results were observed from two independent experiments.” left out
We determined whether herbacetin affected the reporter activity of the MAP kinase target transcription factor, activator protein-1 (AP-1), in HCT116 cells or JB6 cells stimulated with TPA. […] AP-1 reporter activity was then measured (FIG. 3f, g) and the activity was attenuated by herbacetin in colon cancer cells and in TPA-activated JB6 cells. […]

[6] = 0.4 or 2 mg/kg BW IP, 15 weeks, 5 days/week

SMILES: O=c1c(O)c(-c2ccc(O)cc2)oc2c(O)c(O)cc(O)c12 [herbacetin, 3,5,7,8,4′-Pentahydroxyflavone]
- binding affinity of ODC mutant with herbacetin [1]: most reduced binding affinity
- suppression of ODC activity [2]: markedly more effective than DFMO; also recorded: inhibit TPA-induced ODC1 activity
- colon tumor number [3, 6]: fewer
- colon tumor size [3, 6]: smaller
- body weight ([3]; APCMin+ mice): no effect
- effectiveness relative to DFMO in suppressing anchorage independent growth ([4]; HCT116, 2 weeks): at least 20 fold
- potency relative to DFMO ([4]; general statement, test not specified): 20-50 times
- phosphorylation of ERK1/2 and p90^RSK [5]: suppressed phosphorylation

— patent US10532040B2, “Methods of treating cancer with herbacetin” (REGENTS OF THE UNIVERSITY OF MINNESOTA, priority 2011, dated 2020)
